How the values were obtained:
[1] = In vitro concentration in […] which reduces the protein concentration by 50% in a microtubule assembly assay, relative to taxol (1) and expressed as ED50/ED50 taxol; format: functional
[2] = tested on: B16; experiment: Compound was tested in vitro inhibition of proliferation against B16 melanoma after a 40h incubation relative to that of taxol (Taxol=1); format: functional, Mus musculus
[3] = In vitro concentration in […] which reduces the protein concentration by 50% in a microtubule assembly assay expressed as ED50/ED50 taxol; format: functional
[4] = tested on: B16; experiment: Compound was tested in vitro inhibition of proliferation against B16 melanoma after a 40h incubation; format: functional, Mus musculus

SMILES	ED50 ratio [1]	ED50 ratio [2]	ED50 ratio [3]	ED50 ratio [4]
CC(=O)O[C@@]12CO[C@@H]1C[C@H](O)[C@@]1(C)c3oc(=O)oc3C3=C(C)[C@@H](OC(=O)[C@H](O)[C@@H](NC(=O)OC(C)(C)C)c4ccccc4)C[C@@](O)([C@@H](OC(=O)c4ccccc4)C12)C3(C)C (stereo partly specified)	0.5	16.4		
CC(=O)O[C@@]12CO[C@@H]1C[C@H](O)[C@@]1(C)c3oc(=O)oc3C3=C(C)[C@@H](OC(=O)[C@H](O)[C@@H](NC(=O)c4ccccc4)c4ccccc4)C[C@@](O)([C@@H](OC(=O)c4ccccc4)C12)C3(C)C (stereo partly specified)	2.4	34.5		
CC(=O)O[C@H]1C(=O)[C@@]2(C)[C@H]([C@H](OC(=O)c3ccccc3)[C@]3(O)C[C@H](OC(=O)[C@H](O)[C@@H](NC(=O)c4ccccc4)c4ccccc4)C(C)=C1C3(C)C)[C@]1(OC(C)=O)CO[C@@H]1C[C@@H]2O [PACLITAXEL]			1	1

— ChEMBL document CHEMBL1127938, “The first synthesis of a C-9 carbonyl modified baccatin III derivative and its conversion to novel taxol and taxotere analogues” (1994)
